Results on two compounds are retold here after patent EP0381422B1, “Tetrahydrobenzimidazole derivatives” (YAMANOUCHI PHARMACEUTICAL CO. LTD., priority 1989, dated 1990).

The test system of this test is 5-HT3 receptor. The test can be described thus: Antagonism against 5-HT3-receptor: inhibition of serotonin-induced Bezold-Jarish (BJ) reflex in anesthetized rats. Type of test: in vivo, Wistar male rats. Here is the method: Antagonism Against 5-HT3-Receptor
Nine-week-old Wistar male rats were anesthetized by intravenous injection of 1 g/kg of urethane, and blood pressure and heart rate were measured under artificial respiration. Transient reduction in heart rate and blood pressure induced by intravenous administration of serotonin or 2-methylserotonin which is a selective agonist of 5-HT3 was taken as an index of the reaction via 5-HT3 receptor [Bezold-Jarish reflex; Paintal, A.S., Pysiolo. Rev., Vol. 53, p.
Inhibitory activity of compounds of the present invention on serotonin-induced Bezold-Jarish (BJ) reflex in rats is shown in Table 1.

As for `O=C(C1CCc2nc[nH]c2C1)N1CCc2ccccc21.O=C(O)/C=C/C(=O)O` (centres unmarked) [Example 2, 5-[(2,3-Dihydroindol-1-yl)carbonyl]-4,5,6,7-tetrahydrobenzimidazole fumarate], the “BJ Reflex Inhibitory Activity (ED50; µg/kg, i.v.)” value is reported as 0.29 µg/kg.
For the compound `O=C(C1CCc2nc[nH]c2C1)n1c(=O)[nH]c2ccccc21` (centres unmarked) [Example 9, 1-[(4,5,6,7-tetrahydrobenzimidazol-5-yl)carbonyl]-2,3-dihydrobenzimidazol-2-one], the “BJ Reflex Inhibitory Activity (ED50; µg/kg, i.v.)” value came to 0.80 µg/kg.
